Structures can show the parent of a compound that is named as a salt.
What follows are compounds tested against T1, small-conductance Ca2+-activated K+ channels (SK channels, subtype 2) (Homo sapiens, UniProt Q9H2S1) (assay: whole-cell patch-clamp of ionic current through SK2 channels in HEK293 cells (SC100)). Details: whole-cell patch-clamp, HEK293 cells expressing SK2 channels; concentration that increases the basal current by 100%.
T1 construct: expressed in transfected cells; host or cells: HEK293
Assay type: cell-based
Outline: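 Whole-cell patch-clamp recording of current in HEK293 cells expressing SK2 channels. SC100 is the compound concentration that increases basal current by 100%.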
In the case of `Cc1ccn(-c2nc(N3CCOCC3)cc3c2CCN3)n1` [IN11063-092-P1, 4-(4-(3-methyl-1H-pyrazol-1-yl)-2,3-dihydro-1H-pyrrolo[3,2-c]pyridin-6-yl)morpholine hydrochloride], the “SC100 (μM)” value is reported as “+ (+ means >1 uM)”. For `CNc1cc(NC2CCC(F)(F)CC2)nc(-c2nc(C)cs2)c1` [IN11063-096-P1, N2-(4,4-difluorocyclohexyl)-N4-methyl-6-(4-methylthiazol-2-yl)pyridine-2,4-diamine], the “SC100 (μM)” value was “++ (++ means 200 nM-1000 nM)”. In the case of `CC(=O)N1CCCC(OCc2cc(NC3CCC(F)(F)CC3)nc(-n3ccc(C)n3)c2)C1` (centres unmarked) [IN11067-003-P1], the “SC100 (μM)” value is reported as “++ (++ means 200 nM-1000 nM)”. With `COC(=O)N1CCCC(OCc2cc(NC3CCC(F)(F)CC3)nc(-n3ccc(C)n3)c2)C1` (centres unmarked) [IN11067-004-P1] the “SC100 (μM)” value was “++ (++ means 200 nM-1000 nM)”. With `Cc1cc(C)n(-c2cc(OCc3ncco3)cc(NC3CCC(F)(F)CC3)n2)n1` [IN11067-023-P1, N-(4,4-difluorocyclohexyl)-6-(3,5-dimethyl-1H-pyrazol-1-yl)-4-(oxazol-2-ylmethoxy)pyridin-2-amine] the “SC100 (μM)” value was “+++ (+++ means <200 nM)”. `COc1cc(NC2CCCCC2)nc(-c2nc(C)cs2)n1` [IN11067-035-P1] was tested, and the “SC100 (μM)” value was “++ (++ means 200 nM-1000 nM)”. In the case of `CSc1cc(NC2CCC(F)(F)CC2)nc(-n2nc(C)cc2C)n1` [IN11067-060-P1, N-(4,4-difluorocyclohexyl)-2-(3,5-dimethyl-1H-pyrazol-1-yl)-6-(methylthio)pyrimidin-4-amine], the “SC100 (μM)” value is reported as “+ (+ means >1 uM)”. For `Cc1cc(C)n(-c2nc(NC3CCC(F)(F)CC3)cc(S(C)(=O)=O)n2)n1` [IN11067-061-P1], the “SC100 (μM)” value was “+ (+ means >1 uM)”. In the case of `Cc1cc(C)n(-c2nc(NC3CCC(F)(F)CC3)cc([S+](C)[O-])n2)n1` (centres unmarked) [IN11067-062-P1], the “SC100 (μM)” value is reported as “+ (+ means >1 uM)”. With `COc1cc(NC2CCC(F)CC2)nc(-c2nc(C)cs2)n1` (centres unmarked) [IN11067-072-P1] the “SC100 (μM)” value was “+ (+ means >1 uM)”. With `Cc1csc(-c2nc(NC3CCC(F)(F)CC3)cc(OC3CCOCC3)n2)n1` [IN11079-007-P1] the “SC100 (μM)” value was “+ (+ means >1 uM)”. With `FC1(F)CCC(Nc2cc(N3CCOCC3)nc(-n3ccc(C(F)(F)F)n3)n2)CC1` [IN11079-009-P1, N-(4,4-difluorocyclohexyl)-6-morpholino-2-(3-(trifluoromethyl)-1H-pyrazol-1-yl)pyrimidin-4-amine] the “SC100 (μM)” value was “++ (++ means 200 nM-1000 nM)”. With `Cc1csc(-c2nc(NC3CCC(F)(F)CC3)cc(OC3CCOC3)n2)n1` (centres unmarked) [IN11079-014-P1] the “SC100 (μM)” value was “+ (+ means >1 uM)”. In the case of `Cc1csc(-c2nc(NC3CCC(F)(F)CC3)cc(OC3COC3)n2)n1` [IN11079-033-P1], the “SC100 (μM)” value is reported as “++ (++ means 200 nM-1000 nM)”. In the case of `CCOc1ccn(-c2nc(C)cc(NC3CCC(F)(F)CC3)n2)n1` [IN11079-040-P1, N-(4,4-difluorocyclohexyl)-2-(3-ethoxy-1H-pyrazol-1-yl)-6-methylpyrimidin-4-amine], the “SC100 (μM)” value is reported as “+ (+ means >1 uM)”. `Cc1csc(-c2cnc(NC3CCC(F)(F)CC3)c(C)n2)n1` [IN11079-047-P1, N-(4,4-difluorocyclohexyl)-3-methyl-5-(4-methylthiazol-2-yl) pyrazin-2-amine] was tested, and the “SC100 (μM)” value was “+ (+ means >1 uM)”. `Cc1cc(NC2CCC(F)(F)CC2)nc(-n2ccc(OCc3ccccc3)n2)n1` [IN11079-066-P1, 2-(3-(benzyloxy)-1H-pyrazol-1-yl)-N-(4,4-difluorocyclohexyl)-6-methyl pyrimidin-4-amine] was tested, and the “SC100 (μM)” value was “+ (+ means >1 uM)”. For `Cc1cc(NC2CCC(F)(F)CC2)nc(-n2ccc(=O)[nH]2)n1` [IN11079-067-P1, 1-(4-((4,4-difluorocyclohexyl)amino)-6-methylpyrimidin-2-yl)-1H-pyrazol-3-ol], the “SC100 (μM)” value was “+ (+ means >1 uM)”. `COc1cc(NC2CCSCC2)nc(-c2nc(C)cs2)n1` [IN11079-072-P1] was tested, and the “SC100 (μM)” value was “+ (+ means >1 uM)”. `Cc1ccn(-c2cc(CN3CCCOC3=O)cc(NC3CCC(F)(F)CC3)n2)n1` [IN11083-014-P1] was tested, and the “SC100 (μM)” value was “+ (+ means >1 uM)”. For `Cc1csc(-c2cc(NC(=O)OC(C)(C)C)cc(NC3CCC(F)(F)CC3)n2)n1` [IN11083-048-P1, tert-butyl (2-((4,4-difluorocyclohexyl)amino)-6-(4-methylthiazol-2-yl)pyridin-4-yl) carbamate], the “SC100 (μM)” value was “+++ (+++ means <200 nM)”. For `COc1c(NC2CCC(F)(F)CC2)nc(-c2nc(C)cs2)nc1C(C)O` (centres unmarked) [IN11104-039-P1, 1-(6-((4,4-difluorocyclohexyl)amino)-5-methoxy-2-(4-methylthiazol-2-yl)pyrimidin-4-yl)ethan-1-ol], the “SC100 (μM)” value was “+ (+ means >1 uM)”. For `COC(=O)NCCOc1nc(-c2nc(C)cs2)nc(NC2CCC(F)(F)CC2)c1OC` [IN11104-041-P1], the “SC100 (μM)” value was “++ (++ means 200 nM-1000 nM)”. In the case of `CC(=O)c1cc(NC2CCC(F)(F)CC2)cc(-c2nc(C)cs2)c1` [IN11104-059-P1, 1-(3-((4,4-difluorocyclohexyl)amino)-5-(4-methylthiazol-2-yl)phenyl) ethan-1-one], the “SC100 (μM)” value is reported as “+ (+ means >1 uM)”. For `Cc1csc(-c2cc(NC3CCC(F)(F)CC3)cc(C(C)O)c2)n1` (centres unmarked) [IN11104-077-P1, 1-(3-((4,4-difluorocyclohexyl)amino)-5-(4-methylthiazol-2-yl)phenyl) ethan-1-ol], the “SC100 (μM)” value was “+ (+ means >1 uM)”. With `COc1cc(NC2CCC3(CC2)COC3)nc(-c2nc(C)cs2)n1` [IN11104-084-P2] the “SC100 (μM)” value was “+ (+ means >1 uM)”. `CC(=O)c1cc(N2CCOCC2)cc(NC2CCC(F)(F)CC2)n1` [IN11104-090-P1, 1-(6-((4,4-difluorocyclohexyl)amino)-4-morpholinopyridin-2-yl) ethan-1-one] was tested, and the “SC100 (μM)” value was “+ (+ means >1 uM)”. In the case of `Cc1csc(-c2nc(NC3CCC(F)(F)CC3)cc(C(C)C#N)n2)n1` (centres unmarked) [IN11104-094-P1, 2-(6-((4,4-difluorocyclohexyl)amino)-2-(4-methylthiazol-2-yl)pyrimidin-4-yl) propanenitrile], the “SC100 (μM)” value is reported as “++ (++ means 200 nM-1000 nM)”. With `Cc1nccc(-c2cc(N3CCOCC3)cc(NC3CCC(F)(F)CC3)n2)n1` [IN11104-095-P1, N-(4,4-difluorocyclohexyl)-6-(2-methylpyrimidin-4-yl)-4-morpholinopyridin-2-amine] the “SC100 (μM)” value was “+ (+ means >1 uM)”. For `COC(C)c1cc(N(C)C2CCC(F)(F)CC2)nc(-n2ccc(C3CC3)n2)n1` (centres unmarked) [IN11104-100-P1, 2-(3-cyclopropyl-1H-pyrazol-1-yl)-N-(4,4-difluorocyclohexyl)-6-(1-methoxyethyl)-N-methylpyrimidin-4-amine], the “SC100 (μM)” value was “+ (+ means >1 uM)”. In the case of `COc1cc(NC2CCOCC2)nc(-c2nc(C)cs2)n1` [IN11106-004-P1], the “SC100 (μM)” value is reported as “+ (+ means >1 uM)”. With `COc1cc(NC2CCCOC2)nc(-c2nc(C)cs2)n1` (centres unmarked) [IN11106-027-P1] the “SC100 (μM)” value was “+ (+ means >1 uM)”. For `COc1cc(NC2CCC3(CC2)CC3)nc(-c2nc(C)cs2)n1` [IN11106-033-P1], the “SC100 (μM)” value was “+ (+ means >1 uM)”. For `Cc1cc(NC2CCC(F)(F)CC2)nc(-n2ccc(C3CC3)n2)c1` [IN11106-062-P1, 6-(3-cyclopropyl-1H-pyrazol-1-yl)-N-(4,4-difluorocyclohexyl)-4-methylpyridin-2-amine], the “SC100 (μM)” value was “+++ (+++ means <200 nM)”. With `CNC(=O)Oc1c(NC2CCC(F)(F)CC2)nc(-c2nc(C)cs2)nc1OC` [IN11106-065-P1, 4-((4,4-difluorocyclohexyl)amino)-6-methoxy-2-(4-methylthiazol-2-yl)pyrimidin-5-yl methylcarbamate] the “SC100 (μM)” value was “+ (+ means >1 uM)”. `Cn1cnc(COc2cc(NC3CCC(F)(F)CC3)nc(-n3ccc(C4CC4)n3)n2)n1` [IN11106-066-P1] was tested, and the “SC100 (μM)” value was “+ (+ means >1 uM)”. With `Cc1csc(-c2nc(C)c(F)c(NC3CCC(F)(F)CC3)n2)n1` [IN11106-077-P1, N-(4,4-difluorocyclohexyl)-5-fluoro-6-methyl-2-(4-methylthiazol-2-yl)pyrimidin-4-amine] the “SC100 (μM)” value was “++ (++ means 200 nM-1000 nM)”. For `Cc1ccn(-c2nc(NC3CCC(F)(F)CC3)cc(N3CCNC(=O)C3)n2)n1` [IN11106-091-P1], the “SC100 (μM)” value was “++ (++ means 200 nM-1000 nM)”. In the case of `Cc1ccn(-c2nc(NC3CC(F)(F)C3)cc(N3CCOCC3)n2)n1` [IN11107-020-P1], the “SC100 (μM)” value is reported as “+ (+ means >1 uM)”. For `COc1cc(NCCC(C)(F)F)nc(-c2nc(C)cs2)n1` [IN11107-021-P1], the “SC100 (μM)” value was “+ (+ means >1 uM)”. In the case of `COc1cc(NCCCC(C)(F)F)nc(-c2nc(C)cs2)n1` [IN11107-023-P1], the “SC100 (μM)” value is reported as “+ (+ means >1 uM)”. In the case of `COc1cc(NC2CC(F)(F)C2)nc(-n2nc(C)cc2C)n1` [IN11108-018-P1], the “SC100 (μM)” value is reported as “+ (+ means >1 uM)”. `Cc1cc(C)n(-c2nc(NC3CC(F)(F)C3)cc(N3CCOCC3)n2)n1` [IN11108-019-P1] was tested, and the “SC100 (μM)” value was “+ (+ means >1 uM)”. `COCc1cc(NC2CC(F)(F)C2)nc(-n2nc(C)cc2C)n1` [IN11108-038-P1, N-(3,3-difluorocyclobutyl)-2-(3,5-dimethyl-1H-pyrazol-1-yl)-6-(methoxymethyl)pyrimidin-4-amine] was tested, and the “SC100 (μM)” value was “+ (+ means >1 uM)”. With `COc1cc(NC2CCC2)nc(-c2nc(C)cs2)n1` [IN11111-003-P1] the “SC100 (μM)” value was “+ (+ means >1 uM)”. With `COc1c(NC2CCC(F)(F)CC2)nc(-c2nc(C)cs2)nc1OCc1cnco1` [IN11111-021-P1] the “SC100 (μM)” value was “++ (++ means 200 nM-1000 nM)”. In the case of `COc1c(NC2CCC(F)(F)CC2)nc(-c2nc(C)cs2)nc1OCCO` [IN11111-023-P1], the “SC100 (μM)” value is reported as “+ (+ means >1 uM)”.
